Measurements: patent publication US20180338922A1, “FIXED DOSE FORMULATIONS” (Esperion Therapeutics, Inc., priority 2017, published 2018)
Entries after “also recorded” stand apart in the source; their conditions may differ. Read-outs that look alike come from different tables or passages of the source.

Key:
[1] = Flowability of the APIs (compressibility index, Hausner's ratio); type: physicochemical; details: drug substance
[2] = Log partition coefficient (log p); type: physicochemical
[3] = pKa by potentiometric titration; type: physicochemical; details: determined by potentiometric titration
[4] = cited from earlier work
[5] = Forced degradation of bempedoic acid; type: physicochemical
Procedure: Forced degradation of bempedoic acid was carried out to study the impurity profile, degradation pathway, and to facilitate the development of a stability-indicating method. In addition, knowledge obtained from the forced degradation studies was used during formulation and process design and development to prevent impurities from being generated. The specified stress conditions were intended to achieve 5-20% degradation. The stressed samples were compared to the unstressed sample (control).

[6] = Drug-drug compatibility study (HPLC, binary mixture 1:18 ezetimibe:bempedoic acid, solid state); type: physicochemical; details: for Assay (Bempedoic Acid): in % (unit assumed)
Procedure: The fixed dose combination product under development is a novel combination of two drug substances and therefore determination of compatibility of the actives with each other was considered to be critical. The compatibility of the actives was assessed through HPLC analysis of binary mixtures of the drug substances at a ratio 1:18 (ezetimibe:bempedoic acid) in the solid state. Samples were stored at 60° C. and 40° C./75% RH in both open and closed containers for 2 weeks and 4 weeks respectively. Degradation products were evaluated for open (stressed) samples of accelerated condition (40° C./75% RH) and 60° C. Assay for the samples was also carried out.

[7] = Multimedia dissolution of Bempedoic acid tablets (USP Apparatus-II, 50 rpm, 900 mL); type: physicochemical; details: QC medium (phosphate buffer, pH 6.8); in 20 minutes
Procedure: Dissolution characterization was performed in accordance with the dissolution method detailed in IND #106,654. The dissolution conditions were 900 mL phosphate buffer, pH 6.8, using Apparatus-II at 50 rpm.

[8] = QC dissolution of ezetimibe component (0.45% SLS in 0.05 M acetate buffer pH 4.5, Apparatus-II, 50 rpm, 500 mL); type: physicochemical; details: QC dissolution medium, within 15 minutes
Procedure: Drug release profiles for both actives were estimated using common chromatographic conditions with different injection volumes.
The goal of Formulation Development Study #2 was to optimize the concentration of binder used for the granulation of ezetimibe. Wet granulation was used for the preparation of ezetimibe granules. Binder solution, povidone with SLS, and ezetimibe were used for the granulation of dry-mix powder blend. One trial with a higher concentration of povidone (3 mg/tablet) and another with a lower concentration (1 mg/tablet) were performed to observe the impact of binder concentration on dissolution. Ezetimibe granules were mixed with Bempedoic acid granules separately and compressed into a monolayer tablet for both trials.
Dissolution Profile of FDC test product (ezetimibe component) in QC media is given in Table 52, Table 53, FIG. 15, and FIG. 16.

[9] = Forced degradation of ezetimibe; type: physicochemical
[10] = Drug substance attributes (solubility, permeability, BCS class, hygroscopicity); type: physicochemical
[11] = 18.48 mg of solid in Sun cabinet 765 W/m2 at 35° C. for 24 hrs
[12] = 21.41 mg of solid + Heating at 80° C. for 24 hrs
[13] = 5.0 mL stock solution + Heating at 80° C. for 30 min
[14] = 5.0 mL stock solution in Sun cabinet 765 W/m2 at 35° C. for 15 hrs

CC(C)(CCCCCC(O)CCCCCC(C)(C)C(=O)O)C(=O)O [Bempedoic acid, 8-hydroxy-2,2,14,14-tetramethylpentadecanedioic acid]
Hausner's ratio [1]: 1.48
compressibility index [1]: 32.6%
logP ([2]; octanol/pH 3.5 buffer, pH 3.5): 4.38
logP ([2]; octanol/water): 4.33
pKa [3]: 4.88
pKa ([3]; second value): 5.6
aqueous solubility [4]: pH dependent
aqueous solubility ([4]; listed as Bempedoic acid (ETC-1002)): poorly soluble in water
Assay ([5]; Non stressed bempedoic acid): 99.0%
Assay ([5]; Photo, solid state): 99.2%
Assay ([5]; Thermal, solid state 105° C.): 95.8%
Assay ([5]; Thermal, solution 105 C): 97.7%
stability in the stress test study ([5]; all studied stress conditions): stable at all studied conditions
Assay ([5]; exposed to H2O2): 100.4%
Assay ([5]; exposed to HCl): 98.7%
Assay ([5]; exposed to NaOH, differs from expected ~100% due to non-quantitative neutralization prior to injection (footnote 2)): 117.3(2) %
Assay (Bempedoic Acid) ([6]; 2W 60°): 100.2
Assay (Bempedoic Acid) ([6]; 4W 40° C./75% RH Open): 103.7
unspecified impurity ([6]; Initial, 2W 60°, 4W 40° C./75%): No unspecified impurity generated
Assay (Bempedoic Acid) ([6]; Initial): 101.7
drug released [7]: more than 85%

O=C1[C@H](CC[C@H](O)c2ccc(F)cc2)[C@@H](c2ccc(O)cc2)N1c1ccc(F)cc1 [Ezetimibe, (3R,4S)-1-(4-fluorophenyl)-3-[(3S)-3-(4-fluorophenyl)-3-hydroxypropyl]-4-(4-hydroxyphenyl) azetidin-2-one]
drug release (ezetimibe) [8]: more than 85%
Hausner's ratio [1]: 1.42
compressibility index [1]: 29.60%
logP ([2]; n-octanol/pH 7 aqueous phase, n-octanol: pH 7): 4.51
logP ([2]; pH 1, n-octanol: 0.1N HCl): 4.52
% Degradation, Total (unspecified and specified) [9, 11]: 0.22%
Assay [9, 11]: 98.0%
% Degradation, Total (unspecified and specified) [9, 12]: 0.14%
Assay [9, 12]: 96.3%
Assay ([9]; 5.0 mL stock solution + 0.1 mL 1N NaOH at RT for 30 min): 83.1%
Assay ([9]; 5.0 mL stock solution + 1 mL 1N HCl at RT for 24 hrs): 97.9%
Assay ([9]; 5.0 mL stock solution + 1 mL H2O2 30% at RT for 24 hrs): 97.0%
% Degradation, Total (unspecified and specified) [9, 13]: 5.67%
Assay [9, 13]: 93.1%
% Degradation, Total (unspecified and specified) [9, 14]: 1.57%
Assay [9, 14]: 95.0%
% Degradation, Total (unspecified and specified) ([9]; Non stressed ezetimibe): 0.12%
Assay ([9]; Non stressed ezetimibe): 100.0%
stability classification from forced degradation ([9]; exposure to alkali (NaOH) and peroxide (H2O2)): sensitive to alkali and peroxide
stability in the solid form ([9]; heat and photo irradiation, solid form): stable to heat and photo irradiation
pKa [3]: 9.75
aqueous solubility [4]: insoluble in aqueous media at all pH; also recorded: poorly soluble in water
BCS class [10]: Ezetimibe is BCS class II compounds having low
Solubility [10]: low solubility
Assay (EZT) ([6]; 2W 60°): 97.6%
EZT 21 (Keto impurity) ([6]; 2W 60°): 0.04
EZT cyclic ether ([6]; 2W 60°): 0.12%
SMUI ([6]; 2W 60°): 0.17%
Total impurities ([6]; 2W 60°): 0.33%
Assay (EZT) ([6]; 4W 40° C./75% RH Open): 99.5%
EZT 21 (Keto impurity) ([6]; 4W 40° C./75% RH Open): 0.38
EZT cyclic ether ([6]; 4W 40° C./75% RH Open): 0.9%
SMUI ([6]; 4W 40° C./75% RH Open): 0.19%
Total impurities ([6]; 4W 40° C./75% RH Open): 2.34%
Assay (EZT) ([6]; Initial): 99.3%
EZT 21 (Keto impurity) ([6]; Initial): 0.03
SMUI ([6]; Initial): 0.03%
Total impurities ([6]; Initial): 0.06%
